Data set [1] is described as follows: Example IX: stability of 1% Dobutamine sulphate solution at 50° C. It is filed as physicochemical. As to the method: A Dobutamine sulphate solution is prepared by dissolving 1 g Dobutamine in 50 ml of water and 19 ml of a 0.10% sodium ascorbate solution is added, with continuous bubbling of nitrogen. Then 25 mg hydrated cysteine chlorhydrate and 70 mg hydrated sodium citrate are added, then 700 mg sodium chloride to ensure isotonicity. The solution is made up to 100 ml by the addition of distilled water for injectable preparations.
It is filled into 100 ml bottles under nitrogen until the residual oxygen content is below 0.8 ppm. The bottles are then stoppered under vacuum (approx. 10,000 Pa) and sterilized at 121° C. for 20 minutes.
After removal from the autoclave, the bottles are kept in darkness in a thermostatic cupboard at 50° C.
An evaluation is made of absorption at 308 nm as an indication of oxidation into secondary products, the residual oxygen content and the residual cysteine content immediately after sterilization, then after being kept for 14 days at 50° C.
Coloration remains slight and reduces as the pH increases.

Data set [2] is described as follows: Example V: residual cysteine in buffered aqueous cysteine solutions. Format: physicochemical. The note with it: 0.25 mg/ml cysteine, approx. 7 ppm O2, darkness 25° C. 3 days. As to the method:
A 0.25 mg/ml aqueous cysteine solution was adjusted to pH 5.5, made isotonic by sodium chloride and buffered using as a buffering agent: dehydrated sodium citrate (0.70 mg/ml), sodium acetate, sodium hydrogenophosphate, in quantities equimolar to that of the citrate. […] They were kept in darkness at 25° C. for 3 days.

The nature of data set [3]: Example VI: buffered paracetamol + cysteine solutions without deoxygenation. Format: physicochemical. The note with it: 10 mg/ml paracetamol + 0.25 mg/ml cysteine, no inert gas, darkness 25° C. 3 days. The procedure:
A quantity of sodium citrate (in the form of dihydrated disodic citrate) was added to 10 mg/ml aqueous paracetamol solutions, made isotonic by NaCl and stabilized by the addition of cysteine hydrochlorhide (0.25 mg/ml) suitable for adjusting the pH to 5.5. […] Comparative solutions were prepared without sodium citrate or replacing the citrate ions by equimolar quantities to those of the citrate, of either sodium acetate, or sodium hydrogenophosphate; in all cases adjusting the pH to a value of 5.5 by the addition of sodium hydroxide or hydrochloric acid.
The solutions were not subjected to bubbling with inert gas (nitrogen) and were kept in darkness at 25° C. for 3 days.

Data set [4] can be described thus: Paracetamol solution with trisodic citrate kept at 40° C. (general statement). It is filed as physicochemical. The procedure: In particular, in the case of paracetamol, after the addition of trisodic citrate at a concentration of 70 mg/100 ml of solution, the residual cysteine concentration is approximately double than that of preparations without citrate, no coloration appeared, even after 7 weeks at 40° C., and there was no variation in the concentration of paracetamol.

The conditions of data set [5]: for coloration: sterilized 121° C. 15 min. The procedure:
A 10 mg/ml aqueous paracetamol solution is prepared. Adjustment to pH 5.5 is carried out by the addition of HCl, and buffering by the addition of sodium hydrogenophosphate.
Deoxygenation is then carried out by bubbling with nitrogen, until a residual oxygen content of approximately 0.2 ppm is obtained. After the bottles are filled with the solution during prolonged bubbling with nitrogen, they are sterilized at 121° C. for 15 minutes.
In another test, the paracetamol solution, after being subjected to bubbling with nitrogen, has been packaged under nitrogen.

The nature of data set [6]: Example III: stability of paracetamol solution with or without citrate ions. Format: physicochemical. The conditions noted are these: O2 approx. 0.4 ppm, sterilized. The procedure: Thus a 10 mg/ml paracetamol solution adjusted to pH 5.5 by hydrochloric acid was subjected to bubbling with nitrogen until an oxygen content of approximately 0.4 ppm was obtained. The bottles were sterilized at 121° C. for 15 minutes and kept at ambient temperature. […] After bubbling with nitrogen, the residual oxygen content is of the order of 0.4 ppm. Afterwards the solution is packaged into bottles under vacuum and sterilized at 121° C. for 15 minutes. The bottles are kept for 67 days at ambient temperature.

How the values of data set [7] were obtained: A 10 mg/ml aqueous paracetamol solution adjusted to pH 5.5 by sodium hydroxide and buffered at this value by sodium acetate was made isotonic by a sufficient quantity of sodium chloride, then an antioxidant is added to it, in this case 0.20 mg/ml cysteine chlorhydrate. This solution was subjected to bubbling with nitrogen then placed under vacuum (low pressure approx. 550 mm of Hg) before stoppering the bottles. […] After sterilization, the bottles containing this solution were kept for 24 months at 25° C.

The conditions of data set [8]: ambient temperature under light, and 70° C. in darkness; nitrogen bubbling, filling under nitrogen, antioxidant added; cited from earlier work.
Setting [9] is: pH 5.5, sodium hydrogenophosphate.
Setting [10] is: trisodic citrate 70 mg/100 ml, after 7 weeks at 40° C.

Like-named read-outs stand apart in the source and are kept apart here.

In the case of `CC(CCc1ccc(O)cc1)NCCc1ccc(O)c(O)c1` (stereo not drawn) [Dobutamine], in data set [1] (1% solution with ascorbate, cysteine, citrate, vacuum, sterilized 121° C. 20 min, kept at 50° C.), the “degradation of the Dobutamine in heat” value is listed as “no degradation”. Further, the “secondary peaks by liquid chromatography, absorption at 308 nm” value in data set [1] (degree decreases as the pH increases) is given as “appearance of secondary peaks”. Also, in data set [1] (reduces as the pH increases), the coloration result is listed as “slight”.

Consider `N[C@@H](CS)C(=O)O` [cysteine], for which the residual cysteine content entry in data set [2] (pH 5.5, citrate 0.70 mg/ml) is “lowest”; in data set [2] (pH 5.5, non-buffered), 15%; in data set [2] (pH 5.5, sodium acetate), 18%; in data set [2] (setting [9]) it was 21%. Besides, the residual cysteine in data set [3] (pH 5.5, citrate approx. 0.7 mg/ml) is on record as 22%; in data set [3] (pH 5.5, non-buffered) it was 42%; in data set [3] (pH 5.5, sodium acetate), 17%; in data set [3] (setting [9]) it was 21%.

Turning to `CC(=O)Nc1ccc(O)cc1` [paracetamol], in data set [4] (trisodic citrate 70 mg/100 ml of solution), the “residual cysteine concentration versus preparations without citrate” value is recorded as “approximately double”. The coloration entry in data set [4] (setting [10]) was “no coloration”; in data set [5] (10 mg/ml, pH 5.5, no antioxidant, O2 approx. 0.2 ppm, 6 months at 25° C.) it was “colourless”; in data set [5] (packaged under nitrogen, vacuum < 10,000 Pa, O2 0.16 ppm, 8 days at 30° C.), “colourless”; in data set [6] (10 mg/ml with citric acid/sodium citrate, under vacuum, 67 days at ambient temperature) it was “perfectly colourless”; in data set [6] (10 mg/ml, pH 5.5 by HCl, no citrate, 9 days at ambient temperature), “yellow-pink”; in data set [7] (10 mg/ml, pH 5.5, acetate buffer, 0.20 mg/ml cysteine chlorhydrate, vacuum, O2 approx. 1.5 ppm, sterilized, 24 months at 25° C.) it was “colourless”. Further, in data set [4] (setting [10]), the “variation in the concentration of paracetamol” value is listed as “no variation”. Further, the paracetamol content result is “no change” in data set [5] (10 mg/ml, pH 5.5, no antioxidant, O2 approx. 0.2 ppm, sterilized, 6 months at 25° C.) and 100 % of the original value in data set [7] (0.20 mg/ml cysteine chlorhydrate, O2 approx. 1.5 ppm, sterilized, 24 months at 25° C.). For the same compound, in data set [5] (6 months, 10 mg/ml, pH 5.5), the “content of degradation products of paracetamol determined by HPLC” value is listed as “lower than 0.015 % of the paracetamol”. In data set [7] (24 months, 10 mg/ml, pH 5.5), the “degradation products of the paracetamol measured by HPLC” value is listed as “less than 0.02 % of the paracetamol content”. Moreover, the “time for which aqueous solutions are stable” value in data set [8] was 48 h.
